Values quoted from earlier work, collected in US20050267009A1, “Method of Treatment of Acute and Persistent Pain” (priority 2004, published 2005).
Read-outs that look alike come from different tables or passages of the source.

Legend:
[1] = test system: glia and proinflammatory cytokines; details: intrathecal
nerve root injury = details: topical application of disk tissue (nucleus pulposus)
trigeminal nerve fibers = details: dura mater
NOS-2 = details: macrophages and astroglial cells, decreased NOS-2 activity and protein
interleukin-10 = details: prolonged administration
spinal VR1 receptors = biological target: T1, spinal VR1 receptors (Rattus norvegicus, UniProt O35433); details: spinal 0.5-30 microM; greater extent in sham operated than SNL rats
T1 construct: VR1 receptors, present on Adelta- and C-fibres and post-synaptic sites within the spinal cord dorsal horn; endogenous in cells; host or cells: rat spinal cord, in vivo electrophysiology

COX = details: 5 and 7 days after injection
prostaglandin E2 (PGE2) = details: 10 days after CCI, treatment started 12 hours after surgery
nociceptors = details: rat skin in vitro; for sensitization of the heat-evoked CGRP release: applied alone; for EC(50) of heat sensitization of CGRP release: heat-evoked CGRP release
[2] = test system: spinal neuronal responses
[3] = test system: spinal cord nociceptive transmission; details: for wind-up activity: normal rats
[4] = in vivo
[5] = human, in vivo
[6] = systemic HU210 60 microg/kg, sham-operated rats

T1 sequence (O35433 whole entry): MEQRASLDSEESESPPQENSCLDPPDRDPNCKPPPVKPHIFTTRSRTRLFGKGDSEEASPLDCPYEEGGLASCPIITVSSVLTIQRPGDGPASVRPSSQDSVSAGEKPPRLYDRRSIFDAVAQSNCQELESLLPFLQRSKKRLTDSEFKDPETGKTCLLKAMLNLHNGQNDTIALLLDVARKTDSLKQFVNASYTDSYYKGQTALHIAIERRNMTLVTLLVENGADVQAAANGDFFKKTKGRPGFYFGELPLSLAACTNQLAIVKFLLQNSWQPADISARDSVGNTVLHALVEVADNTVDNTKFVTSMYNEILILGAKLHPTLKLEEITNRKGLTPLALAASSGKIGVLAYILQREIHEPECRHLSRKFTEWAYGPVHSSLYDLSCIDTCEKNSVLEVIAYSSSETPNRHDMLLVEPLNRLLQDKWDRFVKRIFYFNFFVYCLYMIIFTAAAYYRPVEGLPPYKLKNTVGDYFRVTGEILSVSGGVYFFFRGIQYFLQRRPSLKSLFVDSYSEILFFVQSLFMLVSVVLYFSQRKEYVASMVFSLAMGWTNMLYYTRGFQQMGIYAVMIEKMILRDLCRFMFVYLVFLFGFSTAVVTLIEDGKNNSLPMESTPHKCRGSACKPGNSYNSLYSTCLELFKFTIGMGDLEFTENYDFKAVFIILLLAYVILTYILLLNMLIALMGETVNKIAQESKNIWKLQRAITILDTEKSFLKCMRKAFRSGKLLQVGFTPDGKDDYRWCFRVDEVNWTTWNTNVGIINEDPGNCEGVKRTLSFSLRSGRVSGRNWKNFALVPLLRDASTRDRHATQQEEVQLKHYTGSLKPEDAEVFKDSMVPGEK

Molecule: N=C(N)NC(=O)c1nc(Cl)c(N)nc1N [Amiloride]
- blockade of ASICs (ASICs): not potent and not selective

Molecule: C/C(=N\N=C(N)N)c1cc(NC(=O)CCCCCCCCC(=O)Nc2cc(/C(C)=N/N=C(N)N)cc(/C(C)=N/N=C(N)N)c2)cc(/C(C)=N/N=C(N)N)c1.Cl.Cl.Cl.Cl [CNI-1493]
- ipsilateral and mirror-image SIN-induced allodynias [1]: prevented and reversed

Molecule: CCCCCCC(C)(C)c1cc(O)c2c(c1)OC(C)(C)[C@@H]1CC=C(CO)C[C@@H]21 [HU210]
- C-fibre mediated post-discharge response of spinal neurones (spinal neurones; spinal administration 0.5-500 ng/50 microl, sham operated rats): significantly reduced
- Adelta-fibre evoked responses of spinal neurones (spinal neurones; spinal administration, both sham operated and nerve injured rats): significantly reduced
- Adelta-fibre evoked responses (spinal neurones; [6]): 48+/−5 % of control
- overall C-fibre evoked response (spinal neurones; [6]): 54+/−8 % of control
- post-discharge response (spinal neurones; [6]): 28+/−12 % of control
- C- or Abeta-fibre evoked responses of spinal neurones (spinal neurones; systemic administration, nerve injured rats): did not significantly reduce

Molecule: [Cl-].[Cl-].[Mn+2].c1cc2nc(c1)CN[C@@H]1CCCC[C@H]1NCCN[C@@H]1CCCC[C@H]1NC2 [M40403]
- anti-hyperalgesic effects with naloxone (superoxide): not reversed

Molecule: CC(=O)CCCCn1c(=O)c2c(ncn2C)n(C)c1=O [Pentoxifylline]
- nerve root injury and swelling (dorsal root ganglion compartment syndrome) (nerve root injury): prevented

Molecule: CNS(=O)(=O)Cc1ccc2[nH]cc(CCN(C)C)c2c1 [Sumatriptan]
- nerve fiber induced plasma extravasation (trigeminal nerve fibers): blocks
- nerve fiber mediated vasodilatation and dural arterial flow (trigeminal nerve fibers): only minor effects

Molecule: N=C(N)NCCCCN [agmatine]
- production of nitric oxide (NOS-2): inhibits

Molecule: CN(C)CCC=C1c2ccccc2CCc2ccccc21 [amitriptyline]
- secretion of the anti-inflammatory cytokine interleukin-10 (interleukin-10): significant increase

Molecule: Oc1cc2c(cc1O)CN(C(=S)NCCc1ccc(Cl)cc1)CCC2 [capsazepine]
- noxious evoked responses of spinal neurones (spinal VR1 receptors): reduced

Molecule: CNCCCN1c2ccccc2CCc2ccccc21 [desipramine]
- secretion of the anti-inflammatory cytokine interleukin-10 (interleukin-10): significant increase

Molecule: O=C(O)CC(O)(C(=O)O)C(F)C(=O)O (stereo not shown) [fluorocitrate]
- ipsilateral and mirror-image SIN-induced allodynias [1]: reversed

Molecule: CC(C)Cc1ccc(C(C)C(=O)O)cc1 (stereo not shown) [ibuprofen]
- mechanical allodynia induced by intraneural TNF (COX): reduced
- PGE2 levels in injured nerves and DRG (prostaglandin E2 (PGE2)): reversed

Molecule: CCCn1cnc2c1c(=O)n(CCCCC(C)=O)c(=O)n2C [propentofylline]
- glial activation and enhanced spinal proinflammatory cytokines (glial activation; following peripheral nerve injury): inhibit
- analgesic activity of morphine (glial activation; propentofylline treatment, neuropathic pain): restoration

Molecule: O=C1CCC(N2C(=O)c3ccccc3C2=O)C(=O)N1 (stereo not shown) [thalidomide]
- epineurial IL-10 immunoreactive macrophages and recovery of endoneurial IL-10-IR (TNF-alpha; CCI): enhanced
- thermal hyperalgesia and mechanical allodynia (TNF-alpha; CCI): reduces
- endoneurial IL-1 beta-immunoreactivity and IL-6-IR (TNF-alpha; CCI, lesioned rat sciatic nerve): not altered
- increase of endoneurial TNF-alpha (TNF-alpha; first week after CCI, immunohistochemistry and ELISA): reduced
- decrease in CGRP-IR and SP-IR in the dorsal horn (TNF-alpha; operated animals): not influenced
- increase in met-enkephalin in the dorsal horn (TNF-alpha; operated animals): further enhanced

Molecule: IL-6: cytokine interleukin-6
- sensitization of the heat-evoked CGRP release (nociceptors): did not induce heat sensitization
- electrically evoked C-fibre, initial C-fibre, post discharge and wind-up ([2]; following neuropathy, spinal): dose-related inhibition
- electrically evoked neuronal responses ([2]; naive rats, spinal 100-500 ng): no significant effect
- mechanical neuronal responses ([2]; neuropathic rats, spinal): markedly inhibited

Molecule: IL-8: cytokine interleukin-8
- sensitization of the heat-evoked CGRP release (nociceptors): not

Molecule: TNF-alpha
- maximum effect on heat-evoked CGRP release (nociceptors): 350%
- EC(50) of heat sensitization of CGRP release (nociceptors): 3.1 ng/mL

B1: IL-1 beta: proinflammatory cytokine interleukin-1 beta (protein, UniProt Q63264 117-268, looked up)
Interleukin-1 beta: VPIRQLHCRLRDEQQKCLVLSDPCELKALHLNGQNISQQVVFSMSFVQGETSNDKIPVALGLKGLNLYLSCVMKDGTPTLQLESVDPKQYPKKKMEKRFVFNKIEVKTKVEFESAQFPNWYISTSQAEHRPVFLGNSNGRDIVDFTMEPVSS
- wind-up scores ([3]; monoarthritic rats, any dose): did not significantly change
- wind-up activity ([3]; higher doses (8.0 ng)): marginal insignificant effect
- wind-up activity ([3]; low i.t. doses 0.03-2.0 ng): dose-dependently enhanced
- maximum effect on heat-evoked CGRP release (nociceptors): ~600%
- EC(50) of heat sensitization of CGRP release (nociceptors): 2.7 ng/mL

B2: nerve growth factor: prototypic member of the neurotrophin family (protein, UniProt P25427 122-241, looked up)
Beta-nerve growth factor: SSTHPVFHMGEFSVCDSVSVWVGDKTTATDIKGKEVTVLGEVNINNSVFKQYFFETKCRAPNPVESGCRGIDSKHWNSYCTTTHTFVKALTTDDKQAAWRFIRIDTACVCVLSRKAARRG
- hyperalgesia [4]: rapid onset of hyperalgesia
- adverse event [5]: induction of pain has been the major adverse event

B3: IL-10: natural anti-inflammatory cytokine (protein, UniProt P29456 19-178, looked up)
Interleukin-10: SKGHSIRGDNNCTHFPVSQTHMLRELRAAFSQVKTFFQKKDQLDNILLTDSLLQDFKGYLGCQALSEMIKFYLVEVMPQAENHGPEIKEHLNSLGEKLKTLWIQLRRCHRFLPCENKSKAVEQVKNDFNKLQDKGVYKAMNEFDIFINCIEAYVTLKMKN
- inflammatory mediator TNF-alpha after SCI (spinal cord injury; rats with SCI): decrease
- less spinal cord tissue loss than in untreated rats (spinal cord injury; single injection within half an hour of SCI): 49%
